Laboratory results taken from patent US12059404B2, “Mesembrenol and/or mesembranol for prophylaxis and treatment of patients suffering from epilepsy and associated diseases” (HG&H Pharmaceuticals (Pty) Ltd, priority 2017, dated 2024).

How the values were obtained:
[1] = system: pyramidal cell activity in hippocampus slices; assay: In vitro hippocampus slice population spike in presence of isolated alkaloids; type: cell-based, rat; conditions: for attenuation of population spike amplitude, single shock stimuli / attenuation of population spike amplitude, theta burst stimuli: two concentrations in the nanomolar range; for attenuation of population spike amplitude, single shock stimuli: FIG. 5; for attenuation of population spike amplitude, theta burst stimuli: FIG. 6
Excerpt: Electric stimulation of Schaffer Collaterals leads to release of glutamate resulting in excitation of the postsynaptic pyramidal cells. The result of the electric stimulation can be recorded as so-called population spike (pop-spike). The amplitude of the resulting population spike represents the number of recruited pyramidal cells. The model of hippocampal pyramidal cell activity reflects the effects of physiological interventions by an increase or decrease of the amplitude of the population spike.
Hippocampus slices were obtained from 19 adult male Sprague-Dawlay rats (Charles River Wiga, Sulzbach, Germany). Rats were kept under a reversed day/night cycle for 2 weeks prior to the start of the experiments to allow recording of in vitro activity from slices during the active phase of their circadian rhythm (Dimpfel, W., Dalhoff, B., Hofmann, W., Schlüter, G. (1994) Electrically evoked potentials in the rat hippocampus slice in the presence of aminophylline alone and in combination with quinolones (European Neuropsychopharmacology, 4, 151-156).
Preparation of the slices was performed exactly as reported earlier (Dimpfel, W. and Hoffmann, J. A. (2011) Effects of rasagiline, its metabolite aminoindan and selegiline on glutamate receptor mediated signalling in the rat hippocampus slice in vitro (BMC Pharmacology, 11, 2)). Animals were exsanguinated under ether anaesthesia; the brain was removed in total and the hippocampal formation was isolated under microstereoscopic sight. The midsection of the hippocampus was fixed to the table of a vibrating microtome (Rhema Labortechnik, Hofheim, Germany) using a cyanoacrylate adhesive, submerged in chilled bicarbonate-buffered saline (artificial cerebrospinal fluid (ACSF): NaCl: 124 mM, KCl: 5 mM, CaCl2: 2 mM, MgSO4: 2 mM, NaHCO3: 26 mM, glucose: 10 mM, and cut into slices of 400μ thickness. All slices were pre-incubated for at least 1 h in Carbogen saturated ACSF (pH 7.4) in a pre-chamber before use (Dimpfel, W., Spüler, M., Dalhoff, A., Hoffmann, W., Schlüter, G. (1991) Hippocampal activity in the presence of quinolones and fenbufen in-vitro (Antimicrobial Agents and Chemotherapy, 35, 1142-1146).
During the experiment the slices were held and treated in a special superfusion chamber (List Electronics, Darmstadt, Germany) according to (Haas, H L., Schaerer, B., Vosmansky, M. (1979). A simple perfusion chamber for the study of nervous tissue slices in vitro (J Neurosci Methods, 1, 323-5), at 35° C. (Schiff, S J., Somjen, G G. (1985) The Effects of Temperature on Synaptic Transmission in Hippocampal Tissue Slices (Brain Research, 345, 279-284)). The preparation was superfused with ACSF at 180-230 ml/h. Electric stimulation (200 μA constant current pulses of 200 μs pulse width) of the Schaffer Collaterals within the […] area and recording of extracellular field potentials from the pyramidal cell layer of CA1 (Dimpfel, W., Spüler, M., Dalhoff, A., Hoffmann, W., Schlüter, G. (1991) Hippocampal activity in the presence of quinolones and fenbufen in-vitro (Antimicrobial Agents and Chemotherapy, 35, 1142-1146).
Measurements were performed at 10 min intervals to avoid potentiation mechanisms. Four stimulations—each 20 seconds apart—were averaged for each time point. After obtaining three stable responses to single stimuli (SS) long-term potentiation was induced by applying a theta burst type pattern (TBS). […]

[2] = system: AMPA mediated transmission; assay: In vitro hippocampus slice population spike with Fluorowillardine alone or together with alkaloids; type: cell-based, rat; conditions: isolated alkaloids; mean of 3 slices; FIG. 7
Method: Four important alkaloids contained in Zembrin® namely, mesembrenone, mesembrenol, mesembrine and mesembranol, were individually isolated. Similar tests to those described in example A were carried out on each of these isolated alkaloids, in the presence of two concentrations in the nanomolar range and the results are illustrated in FIGS. 5 to 7. In FIG. 5, the statistical significance of p<0.01 is marked by stars. In FIG. 6, the statistical significance of p<0.01 is marked by stars. In FIG. 7, mean values of 3 slices are depicted for each recording condition. Statistical significance between Fluorowillardine alone and the presence of the alkaloids is documented by stars. (**=p<0.05; ***=p<0.01).

Row | Structure (SMILES) | concentration exerting a similar extent of attenuation of population spike amplitude ([1]; FIGS. 5 and 6) [nM] | interaction with AMPA mediated transmission (population spike with Fluorowillardine alone or with alkaloid) [2] | attenuation of population spike amplitude, single shock stimuli [1] | attenuation of population spike amplitude, theta burst stimuli [1]
1 | COc1ccc([C@@]23CCC(=O)C[C@@H]2N(C)CC3)cc1OC [mesembrine, reference compound] | 8.65 |  |  | 
2 | COc1ccc(C23C=CC(O)CC2N(C)CC3)cc1OC (stereo not shown) [mesembrenol] |  | interact with AMPA mediated transmission | stronger attenuation | stronger attenuation
3 | COc1ccc(C23CCC(O)CC2N(C)CC3)cc1OC (stereo not shown) [mesembranol] |  | interact with AMPA mediated transmission | stronger attenuation | stronger attenuation
